In patent US20240285571A1, “METHODS OF TREATING BONE INFECTIONS” (MICROBION CORPORATION, priority 2020, published 2024):
Converted amounts (≈) assume the structure as drawn. Read-outs that look alike come from different tables or passages of the source.

How the values were obtained:
Assay type in all cases: cell-based
[1] = system: relevant ATCC QC organisms; assay: Broth microdilution MIC, QC (Example 6)
Procedure: Test Compounds: The test agents BisEDT (MB-1-B3; Lot No. ED268-1-11-01), MB-2B, and MB-6 were stored at room temperature, in the dark, until assayed. The solvent and diluent for the test agents was DMSO (Sigma; St. Louis, MO; Lot No. SHBB9319V) and the prepared stock concentration was 6,464 μg/mL (101× the final test concentration).
Test compounds were evaluated at a concentration range of 0.06-64 μg/mL. For Gram-negative test isolates, amikacin and ceftazidime (alone and with clavulanate at a fixed concentration of 4 μg/mL) were evaluated over a concentration range of 0.06-64 μg/mL; meropenem and levofloxacin were evaluated over a concentration range of 0.008-8 μg/mL. For the testing of S. aureus, clindamycin, daptomycin, levofloxacin and vancomycin were evaluated at a concentration range of 0.008-8 μg/mL; linezolid was tested from 0.03-32 μg/mL.
Organisms: The test organisms as shown in Tables 11-15 consisted of clinical isolates from the Micromyx (MMX) repository and reference strains from the American Type Culture Collection (ATCC; Manassas, VA), National Collection of Type Cultures (NCTC; Public Health England, Salisbury, UK), the Network on Antimicrobial Resistance in Staphylococcus aureus (NARSA; BEI Resources, Manassas, VA), and the Centers for Disease Control and Prevention (CDC; Atlanta, GA). The test organisms were maintained frozen at −80° C. Prior to testing, the isolates were cultured on Tryptic Soy Agar with 5% sheep blood (BAP; Becton Dickson [BD]/BBL; Sparks, MD; Lot Nos. 9080650 and 9108563) at 35° C. Relevant ATCC quality control (QC) organisms (Table 16) were included during testing in accordance with CLSI guidelines (3). Further details on the genetic characterization of the isolates where available can be found in Table 17.
Media: Cation-adjusted Mueller Hinton broth (CAMHB; BD; Lot No. 8190586) was used as the medium for testing (2, 3). For testing daptomycin, calcium was supplemented with […] Ca^2+, resulting in a final concentration of […] Ca^2+ (2, 3).
MIC Assay Procedure: MIC values were determined using a broth microdilution procedure described by CLSI (2, 3). Automated liquid handlers (Multidrop 384, Labsystems, Helsinki, Finland; Biomek 2000 and Biomek F X, Beckman Coulter, Fullerton CA) were used to conduct serial dilutions and liquid transfers.
To prepare the drug mother plates, which would provide the serial drug dilutions for the replicate daughter plates, the wells of columns 2 through 12 of standard 96-well microdilution plates (Costar 3795) were filled with 150 μl of the appropriate diluent for each row of drug. The test articles and comparator compounds (300 μl at 101× the highest concentration to be tested) were dispensed into the appropriate wells in column 1. The Biomek 2000 was then used to make 2-fold serial dilutions in the mother plates from column 1 through column 11. The wells of column 12 contained no drug and served as the organism growth control wells for the assay.
The daughter plates were loaded with 190 μL per well of RPMI using the Multidrop 384. The test panels were prepared on the Biomek FX instrument which transferred 2 μL of drug solution from each well of a mother plate to the corresponding well of each daughter plate in a single step.
(§1) A standardized inoculum of each test organism was prepared per CLSI methods to equal a 0.5 McFarland standard, followed by a dilution of 1:20. The plates were then inoculated with 10 μL of the diluted inoculum using the Biomek 2000 from low to high drug concentration resulting in a final concentration of approximately 5×10^5 CFU/mL.
(§2) Plates were stacked 3-4 high, covered with a lid on the top plate, placed into plastic bags, and incubated at 35° C. for 16 to 20 hr (vancomycin was read for S. aureus after 24 hr incubation time). The MIC was recorded as the lowest concentration of drug that inhibited visible growth of the organism.

Escherichia coli = assay: Broth microdilution MIC (Example 6); details: Escherichia coli, read-out: MIC
Procedure: (§3) Test Compounds: The test agents BisEDT (MB-1-B3; Lot No. ED268-1-11-01), MB-2B, and MB-6 were stored at room temperature, in the dark, until assayed.
(§4) For testing daptomycin, calcium was supplemented with […] Ca^2+, resulting in a final concentration of […] Ca^2+ (2, 3).
(§5) MIC Assay Procedure: MIC values were determined using a broth microdilution procedure described by CLSI (2, 3).
(§6) The Biomek 2000 was then used to make 2-fold serial dilutions in the mother plates from column 1 through column 11. The wells of column 12 contained no drug and served as the organism growth control wells for the assay.
(§7) The test panels were prepared on the Biomek FX instrument which transferred 2 μL of drug solution from each well of a mother plate to the corresponding well of each daughter plate in a single step.
as §1, §2

Klebsiella pneumoniae = assay: Broth microdilution MIC (Example 6); details: Klebsiella pneumoniae, read-out: MIC
Procedure: as §3, §4, §5, §6, §7, §1, §2

Pseudomonas aeruginosa = assay: Broth microdilution MIC (Example 6); details: Pseudomonas aeruginosa, read-out: MIC
Procedure: as §3, §4, §5, §6, §7, §1, §2

Acinetobacter baumannii = assay: Broth microdilution MIC (Example 6); details: Acinetobacter baumannii
Method in brief: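 CLSI broth microdilution in cation-adjusted Mueller Hinton broth, test agents 0.06-64 μg/mL from DMSO stocks, inoculum approx. 5×10^5 CFU/mL. Incubation 35° C for 16–20 hr; MIC taken as lowest concentration inhibiting visible growth.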

[2] = ATCC35218, E. coli ATCC 35218, ESBL
[3] = K. pneumoniae CDC 135, ESBL/VIM
[4] = P. aeruginosa isolate CDC 241, β-lactamase type IMP/OXA

CCC[C@@H]1C[C@@H](C(=O)N[C@@H]([C@H]2O[C@H](SC)[C@H](O)[C@@H](O)[C@H]2O)[C@H](C)Cl)N(C)C1 [CLI]
MIC ([1]; S. aureus ATCC 29213): 0.25 µg/mL

C[C@@H](O)[C@H]1C(=O)N2C(C(=O)O)=C(S[C@@H]3CN[C@H](C(=O)N(C)C)C3)[C@H](C)[C@H]12 [Meropenem]
MIC (Escherichia coli; [2]): ≤ 0.008 µg/mL | MIC (Escherichia coli; ATCCBAA2471, E. coli ATCC BAA-2471, NDM): > 8 µg/mL | MIC (Escherichia coli; E. coli CDC 114, ESBL/KPC): 2 µg/mL (≈ 5.22 µM) | MIC (Escherichia coli; E. coli CDC 118, ESBL/NDM): 0.06 µg/mL (≈ 0.156 µM) | MIC (Escherichia coli; E. coli CDC 435, NDM): > 8 µg/mL | MIC (Escherichia coli; E. coli CDC 451, KPC): 1 µg/mL (≈ 2.61 µM) | MIC (Escherichia coli; E. coli CDC 503, ESBL/NDM): 8 µg/mL (≈ 20.9 µM) | MIC (Escherichia coli; E. coli MMX 5745, KPC): 2 µg/mL (≈ 5.22 µM) | MIC (Escherichia coli; E. coli MMX 5755, ESBL): 0.015 µg/mL (≈ 0.0391 µM) | MIC (Escherichia coli; E. coli MMX 5756, ESBL): ≤ 0.008 µg/mL | MIC (Escherichia coli; E. coli MMX 5758, ESBL): ≤ 0.008 µg/mL | MIC (Klebsiella pneumoniae; ATCCBAA1705, K. pneumoniae ATCC BAA-1705, ESBL/KPC): 8 µg/mL (≈ 20.9 µM) | MIC (Klebsiella pneumoniae; K. pneumoniae CDC 112, KPC): > 8 µg/mL | MIC (Klebsiella pneumoniae; K. pneumoniae CDC 113, ESBL/KPC): > 8 µg/mL | MIC (Klebsiella pneumoniae; K. pneumoniae CDC 115, ESBL/KPC): > 8 µg/mL | MIC (Klebsiella pneumoniae; K. pneumoniae CDC 120, ESBL/KPC): > 8 µg/mL | MIC (Klebsiella pneumoniae; K. pneumoniae CDC 126, ESBL/KPC): 4 µg/mL (≈ 10.4 µM) | MIC (Klebsiella pneumoniae; K. pneumoniae CDC 129, ESBL/KPC): 8 µg/mL (≈ 20.9 µM) | MIC (Klebsiella pneumoniae; [3]): 1 µg/mL (≈ 2.61 µM) | MIC (Klebsiella pneumoniae; K. pneumoniae CDC 138, ESBL/NDM): > 8 µg/mL | MIC (Klebsiella pneumoniae; K. pneumoniae CDC 158, ESBL/NDM/OXA): > 8 µg/mL | MIC (Klebsiella pneumoniae; K. pneumoniae MMX 9029, ESBL): 0.015 µg/mL (≈ 0.0391 µM) | MIC (Pseudomonas aeruginosa; P. aeruginosa isolate CDC 230, β-lactamase type VIM/OXA): > 8 µg/mL | MIC (Pseudomonas aeruginosa; P. aeruginosa isolate CDC 231, β-lactamase type KPC/OXA): > 8 µg/mL | MIC (Pseudomonas aeruginosa; [4]): > 8 µg/mL | MIC (Pseudomonas aeruginosa; P. aeruginosa isolate CDC 246, β-lactamase type NDM/OXA): > 8 µg/mL | MIC (Pseudomonas aeruginosa; P. aeruginosa isolate CDC 250, β-lactamase type NDM/OXA): > 8 µg/mL | MIC (Pseudomonas aeruginosa; P. aeruginosa isolate CDC 356, β-lactamase type KPC): > 8 µg/mL | MIC (Pseudomonas aeruginosa; P. aeruginosa isolate CDC 439, β-lactamase type IMP): > 8 µg/mL | MIC (Pseudomonas aeruginosa; P. aeruginosa isolate CDC 444, β-lactamase type VIM): > 8 µg/mL | MIC (Pseudomonas aeruginosa; P. aeruginosa isolate CDC 457, β-lactamase type VIM): > 8 µg/mL | MIC (Pseudomonas aeruginosa; P. aeruginosa isolate CDC 516, β-lactamase type KPC/AmpC): > 8 µg/mL | MIC (Pseudomonas aeruginosa; P. aeruginosa isolate CDC 518, β-lactamase type KPC/AmpC): > 8 µg/mL | MIC (Acinetobacter baumannii; A. baumannii isolate CDC 273, β-lactamase type ESBL/OXA, read-out: MIC): > 8 µg/mL | MIC (Acinetobacter baumannii; A. baumannii isolate CDC 274, β-lactamase type ESBL/OXA, read-out: MIC): > 8 µg/mL | MIC (Acinetobacter baumannii; A. baumannii isolate CDC 275, β-lactamase type ESBL/OXA, read-out: MIC): > 8 µg/mL | MIC (Acinetobacter baumannii; A. baumannii isolate CDC 277, β-lactamase type ESBL/OXA, read-out: MIC): > 8 µg/mL | MIC (Acinetobacter baumannii; A. baumannii isolate CDC 284, β-lactamase type ESBL/OXA, read-out: MIC): > 8 µg/mL | MIC (Acinetobacter baumannii; A. baumannii isolate CDC 307, β-lactamase type OXA, read-out: MIC): 8 µg/mL | MIC (Acinetobacter baumannii; A. baumannii isolate CDC 308, β-lactamase type ESBL/OXA, read-out: MIC): 8 µg/mL | MIC (Acinetobacter baumannii; A. baumannii isolate CDC 311, β-lactamase type OXA, read-out: MIC): > 8 µg/mL | MIC (Acinetobacter baumannii; A. baumannii isolate CDC 312, β-lactamase type OXA, read-out: MIC): 4 µg/mL | MIC (Acinetobacter baumannii; A. baumannii isolate CDC 313, β-lactamase type ESBL/OXA, read-out: MIC): > 8 µg/mL | MIC (Acinetobacter baumannii; NCTC13304, A. baumannii isolate NCTC 13304, β-lactamase type OXA, read-out: MIC): > 8 µg/mL | MIC ([1]; Escherichia coli, ATCC25922, E. coli ATCC 25922, read-out: MIC): ≤ 0.008 µg/mL | MIC ([1]; Escherichia coli, ATCC35218, E. coli ATCC 35218, read-out: MIC): ≤ 0.008 µg/mL | MIC ([1]; Klebsiella pneumoniae, ATCCBAA1705, K. pneumoniae ATCC BAA-1705, read-out: MIC): 8 µg/mL | MIC ([1]; Pseudomonas aeruginosa, ATCC27853, P. aeruginosa ATCC 27853, read-out: MIC): 0.25 µg/mL

CC(S)C(C)S.[Bi] (stereo not drawn) [MB-6, bismuth-2,3-butanedithiol]
MIC (Escherichia coli; [2]): 1 µg/mL | MIC (Escherichia coli; E. coli MMX 5755, ESBL): 2 µg/mL | MIC (Escherichia coli; E. coli MMX 5756, ESBL): 1 µg/mL | MIC (Klebsiella pneumoniae; [3]): 4 µg/mL | MIC (Klebsiella pneumoniae; K. pneumoniae MMX 9029, ESBL): 2 µg/mL | MIC (Pseudomonas aeruginosa; [4]): 8 µg/mL | MIC (Acinetobacter baumannii; A. baumannii isolate CDC 273, β-lactamase type ESBL/OXA): 0.5 µg/mL | MIC (Acinetobacter baumannii; A. baumannii isolate CDC 274, β-lactamase type ESBL/OXA): 0.5 µg/mL | MIC (Acinetobacter baumannii; A. baumannii isolate CDC 275, β-lactamase type ESBL/OXA): 0.5 µg/mL | MIC (Acinetobacter baumannii; A. baumannii isolate CDC 277, β-lactamase type ESBL/OXA): 1 µg/mL | MIC (Acinetobacter baumannii; A. baumannii isolate CDC 284, β-lactamase type ESBL/OXA): 1 µg/mL | MIC (Acinetobacter baumannii; A. baumannii isolate CDC 307, β-lactamase type OXA): 0.5 µg/mL | MIC (Acinetobacter baumannii; A. baumannii isolate CDC 308, β-lactamase type ESBL/OXA): 0.5 µg/mL | MIC (Acinetobacter baumannii; A. baumannii isolate CDC 311, β-lactamase type OXA): 0.5 µg/mL | MIC (Acinetobacter baumannii; A. baumannii isolate CDC 312, β-lactamase type OXA): 0.5 µg/mL | MIC (Acinetobacter baumannii; A. baumannii isolate CDC 313, β-lactamase type ESBL/OXA): 0.5 µg/mL | MIC (Acinetobacter baumannii; NCTC13304, A. baumannii isolate NCTC 13304, β-lactamase type OXA): 0.5 µg/mL
